From patent US20250170132A1, “SALTS AND POLYMORPHIC FORMS OF MENIN INHIBITORS AND PHARMACEUTICAL COMPOSITIONS THEREOF” (Syndax Pharmaceuticals, Inc., priority 2023, published 2025)

How the values were obtained:
Assay type in all cases: physicochemical
[1] = Polymorph screen: solid vapor diffusion
Experimental: (§1) X-ray powder diffraction (XRPD) • Instrument: Panalytical Empyrean • Parameters: X-Ray tube Cu (Kα radiation); Power: 45 kV×40 mA • Scanning range: 2 to 40 2θ (degree) • Step size: 0.01 degree • Scanning speed: 6.33 degree (20) per minute Thermogravimetric analysis (TGA) • Instrument: TA Instruments Discovery TGA • Parameters: Ramp 10° C. per minute, 25 to 300° C., 50 mL/min N2 sweep Differential scanning calorimetry (DSC) • Instrument: TA Instruments Discovery DSC • Parameters: Ramp 10° C. per minute, up to 300° C. Polarized light microscopy (PLM) • Instrument: Nikon Eclipse Ci POL • Camera: Nikon DS-Fi3 • Software: Nikon NIS Elements
Solid vapor diffusion—About 30 mg API was transferred into 4 mL vials which are placed in 20 mL glass vials containing different solvents. The solids were tested by XRPD after 7-10 days (Table 31).

[2] = Polymorph screen: slurry at RT
Experimental: as §1
Slurry at RT—About 40 mg API was suspended and stirred in different solvents in 4 mL vials at RT. The solids in the slurry were characterized by XRPD after 5-7 days (Table 33).

[3] = Polymorph screen: temperature cycling; details: temperature cycling 50→40→30→20→5 °C, total 2 cycles, each step 4 h, isolated at RT, XRPD
Experimental: as §1
The obtained solids were characterized by XRPD (Table 37).

[4] = Polymorph screen: solvent drop grinding; details: XRPD
Experimental: as §1
Solvent drop grinding—About 30 mg API was ground with different solvents. The obtained solids were characterized by XRPD (Table 39).

CCN(C(=O)c1cc(F)ccc1Oc1cncnc1N1CC2(CCN(C[C@H]3CC[C@H](NS(=O)(=O)CC)CC3)CC2)C1)C(C)C [Compound A monocitrate monohydrate]
Crystal Form ([1]; solid vapor diffusion, 1,4-dioxane, RT): Form A | Crystal Form ([1]; solid vapor diffusion, 2-Methyl THF, RT): Form A | Crystal Form ([1]; solid vapor diffusion, CHCl3, RT): Form A | Crystal Form ([1]; solid vapor diffusion, CPME, 40° C.): Form A | Crystal Form ([1]; solid vapor diffusion, DCM, RT): Form A | Crystal Form ([1]; solid vapor diffusion, Dimethoxyethane, 40° C.): Form A | Crystal Form ([1]; solid vapor diffusion, IPAc, RT): Form A | Crystal Form ([1]; solid vapor diffusion, MEK, RT): Form A | Crystal Form ([1]; solid vapor diffusion, MTBE, RT): Form A | Crystal Form ([1]; solid vapor diffusion, THF, RT): Form A | Crystal Form ([1]; solid vapor diffusion, Toluene, 40° C.): Form A | Crystal Form ([2]; Acetone): Form A | Crystal Form ([2]; Benzene): Form A | Crystal Form ([2]; CHCl3): Form A | Crystal Form ([2]; CPME): Form A | Crystal Form ([2]; DMA:Benzene 1:9): Form A | Crystal Form ([2]; DMA:CHCl3 1:9): Form A | Crystal Form ([2]; DMA:EtOH 1:9): Form A | Crystal Form ([2]; DMF:EtOAc 1:9): Form A | Crystal Form ([2]; DMSO (SL→Gel)): Amorphous | Crystal Form ([2]; DMSO:IPAc 1:9): Form A | Crystal Form ([2]; Diethylamine:EtOH 3:7): FB-2 | Crystal Form ([2]; IPA): Form A | Crystal Form ([2]; MIBK): Form A | Crystal Form ([2]; MeOH:MeCN 9:1): Form A | Crystal Form ([2]; NMP:IPA 1:9): Form A | Crystal Form ([2]; THF:H2O (aw = 0.2)): Form A | Crystal Form ([2]; THF:H2O (aw = 0.4)): Form A | Crystal Form ([2]; THF:H2O (aw = 0.6)): Form A | Crystal Form ([2]; THF:H2O (aw = 0.8)): Form A | Crystal Form ([2]; Toluene): Form A | Crystal Form ([3]; 1,4-dioxane:H2O 9:1): Form A* | Crystal Form ([3]; 2-MeTHF:DMF 9:1): Form A* | Crystal Form ([3]; DMSO:Toluene 1:9): Form A* | Crystal Form ([3]; NMP:nPA 1:9): Form A* | Crystal Form ([4]; about 30 mg API, 1,4-Dioxane): Form A | Crystal Form ([4]; about 30 mg API, Acetone): Form A | Crystal Form ([4]; about 30 mg API, DCM): Form A | Crystal Form ([4]; about 30 mg API, EtOH): Form A | Crystal Form ([4]; about 30 mg API, THF): Form A
